For one test, the system named is C. albicans biofilm. It is filed as cell-based, Candida albicans. The note with it: 24 h. As to the method:
The microorganism’s ability to form biofilm was determined using the method previously described in our laboratory. Bacterial and fungal biofilm prevention and eradication assays were performed based on our published protocols. Synthetized peptides (P0–P4) were tested at sub-MIC concentrations ranging from 10 to 80 μM in triplicate in both assays. For the prevention of biofilm formation, diluted cultures of each strain were added to 96-well plates and incubated with peptides (at concentrations ranging from 10 to 80 μM) at 30 °C, for 24 h. For the eradication of mature biofilm, diluted cultures of C. albicans and two bacteria were added to 96-well plates and incubated at 30 °C. After 24 h, the planktonic cells and medium were aspirated from the wells and fresh medium was added to the well, followed by peptides at the same concentrations. Plates were incubated at 30 °C, for an additional 24 h. […] The OD of each well was measured at 550 nm with a microplate reader. The same formula described above was used to quantify the biofilm biomass forming when the incubation was done with peptides or when remaining after incubation with peptides. The percentage of biofilm inhibition and eradication was determined by the formula: biofilm reduction % = OD control − OD sample/OD control × 100%.

The test system of test [1] is C. albicans ATCC 90028. Nature of the test: Broth microdilution MIC determination. The class given is cell-based, Candida albicans. The note with it: 80% inhibition of growth in liquid medium (TSB), 37 °C, 18 h, mean of three replicates ± SD. Here is the method:
(§1) Microorganisms used for this study were as follows: Staphylococcus aureus ATCC 6538, Pseudomonas aeruginosa ATCC 9027, and Candida albicans ATCC 90028. Microorganisms were routinely cultured in tryptic soy broth (TSB) supplemented with 0.1% glucose, at 37 °C, for 18 h prior to experiments, and corresponding cell concentration was adjusted to 10^6 CFU mL^−1 by optical density at 600 nm. Stock cultures were maintained in trypticase soy agar (TSA) and Sabouraud dextrose agar containing glycerol at −80 °C. The minimum inhibitory concentration (MIC) determination was conducted as described in our previous papers. Briefly, microbes were inoculated in TSB and incubated at 37 °C to the exponential phase. Then, the inoculum was diluted with fresh TSB to 10^6 CFU/mL, and 50 μL microbial dilutions were mixed with serial dilutions of fractions or peptides (50 μL) in 96-well microtiter plates.
(In general: Broth dilution looks for growth in wells or tubes with falling amounts of substance.)

The subject of test [2] is P. aeruginosa ATCC 9027. Nature of the test: Broth microdilution MIC determination. The settings on record: 80% inhibition of growth in liquid medium (TSB), 37 °C, 18 h, mean of three replicates ± SD. The class given is cell-based, Pseudomonas aeruginosa. As to the method:
as §1

Test [3] has as its system S. aureus ATCC 6538. Nature of the test: Broth microdilution MIC determination. The class given is cell-based, Staphylococcus aureus. The settings on record: 80% inhibition of growth in liquid medium (TSB), 37 °C, 18 h, mean of three replicates ± SD. As to the method: as §1
For test [4], the system named is mature biofilms of S. aureus, P. aeruginosa, and C. albicans. Nature of the test: Mature biofilm eradication assay, crystal violet. The class given is cell-based. The settings on record: preformed 24 h biofilm, peptide 10 to 80 μM for 24 h, 30 °C; for Dispersion (clearance) of mature biofilm biomass: strain and concentration not stated for the values (Figure 4). As to the method:
The microorganism’s ability to form biofilm was determined using the method previously described in our laboratory. Bacterial and fungal biofilm prevention and eradication assays were performed based on our published protocols. Synthetized peptides (P0–P4) were tested at sub-MIC concentrations ranging from 10 to 80 μM in triplicate in both assays. For the prevention of biofilm formation, diluted cultures of each strain were added to 96-well plates and incubated with peptides (at concentrations ranging from 10 to 80 μM) at 30 °C, for 24 h. For the eradication of mature biofilm, diluted cultures of C. albicans and two bacteria were added to 96-well plates and incubated at 30 °C. After 24 h, the planktonic cells and medium were aspirated from the wells and fresh medium was added to the well, followed by peptides at the same concentrations. Plates were incubated at 30 °C, for an additional 24 h. For both above mentioned assays, the planktonic cells and medium were aspirated at the end of the final incubation period, and wells were washed twice with PBS. The residual attached biofilms were fixed with 95% v/v ethanol per well and, after 20 min, plates were emptied and left to dry. Plates were stained for 15 min with 0.1% w/v crystal violet. Excess stain was then removed by rinsing the plate with PBS. The plates were allowed to dry, and the crystal violet-stained biofilm was solubilized with 200 μL of 30% v/v glacial acetic acid per well. The OD of each well was measured at 550 nm with a microplate reader. The same formula described above was used to quantify the biofilm biomass forming when the incubation was done with peptides or when remaining after incubation with peptides. The percentage of biofilm inhibition and eradication was determined by the formula: biofilm reduction % = OD control − OD sample/OD control × 100%.

Test [5] has as its system P. aeruginosa ATCC 9027. Nature of the test: Agar diffusion assay (inhibition zone diameter). The class given is cell-based, Pseudomonas aeruginosa. Further details: key: R: Resistant; I: Intermediate; S: Sensitive. The settings on record: 5 μg ampicillin, 5 μg gentamicin, 37 °C, 24 h. As to the method:
(§2) Microorganisms used for this study were as follows: Staphylococcus aureus ATCC 6538, Pseudomonas aeruginosa ATCC 9027, and Candida albicans ATCC 90028. Microorganisms were routinely cultured in tryptic soy broth (TSB) supplemented with 0.1% glucose, at 37 °C, for 18 h prior to experiments, and corresponding cell concentration was adjusted to 10^6 CFU mL^−1 by optical density at 600 nm. Stock cultures were maintained in trypticase soy agar (TSA) and Sabouraud dextrose agar containing glycerol at −80 °C.
(§3) For antimicrobial testing, the agar disc diffusion method was used and the antimicrobial susceptibility was detected by analyzing the inhibition zones, measured and compared according to the standards set by the CLSI [106], which classify the strains as sensitive (S), intermediate (I), or resistant (R). All tests were performed in duplicate, and the antimicrobial activity was expressed as the mean of inhibition diameters (mm, ±standard deviation, SD) produced by the extracts.
(§4) Microorganisms were cultivated overnight and a suspension containing 10^6 CFU mL^−1 was spread on plates containing TSA or Sabouraud agar. Holes of approximately 5 × 3 mm were made in the agar and were filled with 30 μL of the extract stock solution (1 mg/mL). After incubation at 37 °C for 24 h, inhibition zones were measured in millimeters and compared to the controls. […]

Test [6] concerns S. aureus ATCC 6538. Nature of the test: Agar diffusion assay (inhibition zone diameter). The class given is cell-based, Staphylococcus aureus. Further details: key: R: Resistant; I: Intermediate; S: Sensitive. The settings on record: 5 μg ampicillin, 5 μg gentamicin, 37 °C, 24 h. As to the method:
as §2, §3, §4

Test [7] relates to C. albicans ATCC 90028. The experiment in a line: Agar diffusion assay (inhibition zone diameter). The class given is cell-based, Candida albicans. Further details: key: R: Resistant; I: Intermediate; S: Sensitive. The note with it: 1 μg amphotericin B, 37 °C, 24 h. Here is the method:
as §2, §3, §4
For orientation: In agar diffusion tests the substance spreads into inoculated agar from a disc or well.

Ends that are not written are not given here.

In the case of QAGSNKGASQKGMS-NH2 [P2], the “Inhibition rate of biofilm formation” value in the test on C. albicans biofilm is on record as “about 40%”. Besides, the MIC80 synthetized peptides with C. albicans ATCC 90028 [1] is reported as 100 ± 3 µM; in the test with P. aeruginosa ATCC 9027 [2], 50 ± 2 µM; with S. aureus ATCC 6538 [3], 50 ± 5 µM. Further, in test [4], the “Dispersion (clearance) of mature biofilm biomass” value (from here on “Dispersion (clearance)”) is given as about 90%.
With EGQGVISLQAGTNK-NH2 [P3], the MIC80 synthetized peptides in the test with C. albicans ATCC 90028 [1] was determined as 100 ± 4 µM; against P. aeruginosa ATCC 9027 [2], 50 ± 3 µM; with S. aureus ATCC 6538 [3] it was 80 ± 1 µM. Moreover, the “Dispersion (clearance)” value in test [4] was about 80%.
For the compound `CC1(C)S[C@@H]2[C@H](NC(=O)[C@H](N)c3ccccc3)C(=O)N2[C@H]1C(=O)O` [AMP, Ampicillin], the “Susceptibility class to positive control (CLSI interpretative chart)” value (shortened to “Susceptibility class to positive control”) in the test on P. aeruginosa ATCC 9027 [5] is recorded as “R”; in the test on S. aureus ATCC 6538 [6], “S”.
For the compound QAGTNK-NH2 [P1], the MIC80 synthetized peptides with C. albicans ATCC 90028 [1] turned out to be 200 ± 5 µM; in the test on P. aeruginosa ATCC 9027 [2], 100 ± 5 µM; against S. aureus ATCC 6538 [3] it was 150 ± 3 µM. The “Antibiofilm (eradication) activity, in words” value in test [4] is “weakest antibiofilm activity”.
Regarding `CNC(C)C1CCC(N)C(OC2C(N)CC(N)C(OC3OCC(C)(O)C(NC)C3O)C2O)O1` (stereo not shown) [G, Gentamicin], the “Susceptibility class to positive control” value in the test with P. aeruginosa ATCC 9027 [5] and in the test with S. aureus ATCC 6538 [6] was “S” throughout.
In the case of `C[C@@H]1[C@H](O)[C@@H](C)/C=C/C=C/C=C/C=C/C=C/C=C/C=C/[C@H](O[C@@H]2O[C@H](C)[C@@H](O)[C@H](N)[C@@H]2O)C[C@@H]2O[C@](O)(C[C@@H](O)C[C@@H](O)[C@H](O)CC[C@@H](O)C[C@@H](O)CC(=O)O[C@H]1C)C[C@H](O)[C@H]2C(=O)O` [AMPH-B, amphotericin B], the “Susceptibility class to positive control” value in the test on C. albicans ATCC 90028 [7] is recorded as “S”.
With “GEGIIGLQAGTNKFASQIGMKIGAVRHIADIR-NH2 [P4]”, the figures for the MIC80 synthetized peptides in the test with C. albicans ATCC 90028 [1], in the test with P. aeruginosa ATCC 9027 [2] and in the test with S. aureus ATCC 6538 [3] were 180 ± 5 µM, 50 ± 2 µM and 80 ± 5 µM, respectively.
On to AGTNK-NH2 [P0], for which the MIC80 synthetized peptides against C. albicans ATCC 90028 [1] is 200 ± 3 µM; with P. aeruginosa ATCC 9027 [2], 200 ± 3 µM; against S. aureus ATCC 6538 [3], 150 ± 2 µM. The “Dispersion (clearance)” value in test [4] was “about 70%”.

The record behind these values is paper PMC7460285, “OctoPartenopin: Identification and Preliminary Characterization of a Novel Antimicrobial Peptide from the Suckers of Octopus vulgaris” (Marine Drugs, 2020).
